# Experiments:
# Format in all cases: in vivo
# [1] = system: barnyardgrass (Echinochloa crus-galli); test: Test B flooded paddy test; details: Flood, 250 g ai/ha; 0 to 100 scale where 0 is no effect and 100 is complete control; 13 to 15 d
# Outline: (§1)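 Plants at 2-leaf stage flooded to 3 cm above soil, with compounds applied directly to paddy water and that depth maintained. Plants kept in greenhouse 13–15 d. Visual rating versus controls on a 0 (no effect) to 100 (complete control) scale.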
# rice (Oryra sativa) = test: Test B flooded paddy test; details: Flood, 250 g ai/ha; 0 to 100 scale where 0 is no effect and 100 is complete control; 13 to 15 d
# Outline: as §1
# [2] = system: ducksalad (Heteranthera limosa); test: Test B flooded paddy test; details: Flood, 250 g ai/ha; 0 to 100 scale where 0 is no effect and 100 is complete control; 13 to 15 d
# Outline: as §1
# [3] = system: sedge, umbrella (small-flower umbrella sedge, Cyperus difformis); test: Test B flooded paddy test; details: Flood, 250 g ai/ha; 0 to 100 scale where 0 is no effect and 100 is complete control; 13 to 15 d
# Outline: as §1
# [4] = system: ragweed (common ragweed, Ambrosia elatior); test: Test A preemergence
# Outline: (§2)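 Seeds sprayed preemergence with a directed soil spray, or plants at 2 to 10 cm height and one- to two-leaf stage sprayed postemergence, with test chemicals in a non-phytotoxic solvent mixture containing surfactant, in loam soil–sand blend. Injury rated visually against untreated controls after about 10 d in greenhouse, 0 (no effect) to 100 (complete control).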
# Kochia (Kochia scoparia) [5] = test: Test A preemergence
# Outline: as §2
# [6] = system: giant foxtail (Setaria faberii); test: Test A preemergence
# Outline: as §2
# [7] = system: barnyardgrass (Echinochloa crus-galli); test: Test A preemergence
# Outline: as §2
# [8] = system: ryegrass, Italian (Italian ryegrass, Lolium multiflorum); test: Test A preemergence
# Outline: as §2
# [9] = system: pigweed (Amaranthus retroflexus); test: Test A preemergence
# [10] = system: wheat (Triticum aestivum); test: Test A postemergence; details: postemergence, 0 to 100 scale (0 no effect, 100 complete control)
# Outline: as §2
# [11] = system: ragweed (common ragweed, Ambrosia elatior); test: Test A postemergence; details: postemergence, 0 to 100 scale (0 no effect, 100 complete control)
# Outline: as §2
# corn (Zea mays) = test: Test A postemergence; details: postemergence, 0 to 100 scale (0 no effect, 100 complete control)
# Outline: as §2
# Kochia (Kochia scoparia) [12] = test: Test A postemergence; details: postemergence, 0 to 100 scale (0 no effect, 100 complete control)
# Outline: as §2
# [13] = system: Galium (catchweed bedstraw, Galium aparine); test: Test A postemergence; details: postemergence, 0 to 100 scale (0 no effect, 100 complete control)
# Outline: as §2
# [14] = system: giant foxtail (Setaria faberii); test: Test A postemergence; details: postemergence, 0 to 100 scale (0 no effect, 100 complete control)
# Outline: as §2
# [15] = system: barnyardgrass (Echinochloa crus-galli); test: Test A postemergence; details: postemergence, 0 to 100 scale (0 no effect, 100 complete control)
# Outline: as §2
# [16] = system: ryegrass, Italian (Italian ryegrass, Lolium multiflorum); test: Test A postemergence; details: postemergence, 0 to 100 scale (0 no effect, 100 complete control)
# Outline: as §2
# [17] = system: pigweed (Amaranthus retroflexus); test: Test A postemergence; details: postemergence, 0 to 100 scale (0 no effect, 100 complete control)
# Outline: as §2
# [18] = system: blackgrass (Alopecurus myosuroides); test: Test A postemergence; details: postemergence, 0 to 100 scale (0 no effect, 100 complete control)
# Outline: as §2
# [19] = 125 g ai/ha, Preemergence, visual injury after approximately 10 d, 0 to 100 scale where 0 is no effect and 100 is complete control
# [20] = 500 g ai/ha, preemergence, 0 to 100 scale, 0 = no effect, 100 = complete control
# [21] = 125 g ai/ha, visual rating after approx. 10 d
# [22] = 500 g ai/ha, visual injury, approx. 10 d
structure (smiles),measurement,setting,value
Cc1ccc(C2CN(C)C(=O)C2C(=O)Nc2ccccc2C(F)(F)F)cc1 (stereo not drawn) [Compound 665],"Plant response rating, Barnyardgrass",[1],70
same,"Plant response rating, Rice",rice (Oryra sativa),25
same,"Plant response rating, Ducksalad",[2],90
same,"Plant response rating, Sedge, Umbrella",[3],0
same,"Plant response rating, Ragweed",[4]; [19],20
same,"Plant response rating, Ragweed",[4]; [20],90
same,"Plant response rating, Kochia",Kochia (Kochia scoparia) [5]; [19],60
same,"Plant response rating, Kochia",Kochia (Kochia scoparia) [5]; [20],70
same,"Plant response rating, Foxtail, Giant",[6]; [19],100
same,"Plant response rating, Foxtail, Giant",[6]; [20],100
same,"Plant response rating, Barnyardgrass",[7]; [19],90
same,"Plant response rating, Barnyardgrass",[7]; [20],90
same,"Plant response rating, Ryegrass, Italian",[8]; [19],20
same,"Plant response rating, Ryegrass, Italian",[8]; [20],50
same,"Plant response rating, Pigweed",[9]; [19],30
same,"Plant response rating, Pigweed",[9]; [20],30
same,"Plant response rating, Wheat",[10]; [21],30
same,"Plant response rating, Wheat",[10]; [22],70
same,"Plant response rating, Ragweed",[11]; [21],0
same,"Plant response rating, Ragweed",[11]; [22],30
same,"Plant response rating, Corn",corn (Zea mays); [21],40
same,"Plant response rating, Corn",corn (Zea mays); [22],70
same,"Plant response rating, Kochia",Kochia (Kochia scoparia) [12]; [21],0
same,"Plant response rating, Kochia",Kochia (Kochia scoparia) [12]; [22],50
same,"Plant response rating, Galium",[13]; [21],50
same,"Plant response rating, Galium",[13]; [22],50
same,"Plant response rating, Foxtail, Giant",[14]; [21],90
same,"Plant response rating, Foxtail, Giant",[14]; [22],90
same,"Plant response rating, Barnyardgrass",[15]; [21],90
same,"Plant response rating, Barnyardgrass",[15]; [22],90
same,"Plant response rating, Ryegrass, Italian",[16]; [21],30
same,"Plant response rating, Ryegrass, Italian",[16]; [22],80
same,"Plant response rating, Pigweed",[17]; [21],0
same,"Plant response rating, Pigweed",[17]; [22],20
same,"Plant response rating, Blackgrass",[18]; [21],40
same,"Plant response rating, Blackgrass",[18]; [22],70

# Source: patent publication US12077503B2, “Substituted cyclic amides and their use as herbicides” (FMC CORPORATION, priority 2015, dated 2024)
